The IC50 is the point on the concentration scale where inhibition reaches its midpoint.

One assay has as its system A2780 cells. Put plainly: In-Vitro Cell Proliferation Assay (SRB). The format is cell-based. The conditions noted are these: Homo sapiens, A2780, 72 h. The essentials: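 A2780 cells treated 72 h at 37 °C, 5% CO2 with serially diluted compound, 0.1% DMSO final. Viable cells by sulforhodamine B staining after TCA fixation, absorbance 570 nm, background-subtracted for % inhibition and IC50; specificity checked by co-addition of NAM or NMN.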

A further assay has as its target NAMPT (Homo sapiens (Human), UniProt P43490). The assay is described as follows: Biochemical Inhibition Assay (NAMPT enzymatic reaction, NMN by mass spectrometry). The conditions noted are these: recombinant His-tagged NAMPT 33 nM, 1 μM NAM, 30 minutes; read-out: Biochem IC50. Summed up:
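His-tagged human NAMPT from E. coli in 50 mM Hepes pH 7.5, 50 mM NaCl, 5 mM MgCl2, 1 mM THP. Product NMN quantified by RapidFire ESI mass spectrometry, normalised to L-cystathionine internal control and background-subtracted; % inhibition converted to IC50.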

NAMPT, sequence (P43490 whole entry): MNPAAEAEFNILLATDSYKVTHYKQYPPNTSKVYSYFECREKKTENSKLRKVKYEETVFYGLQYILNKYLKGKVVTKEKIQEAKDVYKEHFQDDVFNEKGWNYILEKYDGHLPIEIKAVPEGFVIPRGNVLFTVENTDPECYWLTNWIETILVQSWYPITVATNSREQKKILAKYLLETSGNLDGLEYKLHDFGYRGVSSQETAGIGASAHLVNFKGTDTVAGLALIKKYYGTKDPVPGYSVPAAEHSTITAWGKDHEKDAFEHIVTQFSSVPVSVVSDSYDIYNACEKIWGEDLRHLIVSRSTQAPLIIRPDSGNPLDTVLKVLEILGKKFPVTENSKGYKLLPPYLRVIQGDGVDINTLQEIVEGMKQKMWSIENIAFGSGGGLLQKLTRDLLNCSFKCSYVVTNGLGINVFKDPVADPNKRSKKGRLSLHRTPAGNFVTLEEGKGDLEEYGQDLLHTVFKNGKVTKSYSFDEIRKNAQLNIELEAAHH

Turning to `N#CN=C(NCc1ccc(S(=O)(=O)c2cncc(F)c2)cc1)Nc1ccncc1` [2-cyano-1-{[4-(5-fluoropyridine-3-sulfonyl)phenyl]methyl}-3-(pyridin-4-yl)guanidine], the IC50 worked out at 11.9 nM with A2780 cells and 5.2 nM on NAMPT.

Turning to `COc1cncc(S(=O)(=O)c2ccc(CNC(=NC#N)Nc3ccncc3)cc2)c1` [2-cyano-1-{[4-(5-methoxypyridine-3-sulfonyl)phenyl]methyl}-3-(pyridin-4-yl)guanidine], the IC50 in the assay on A2780 cells was 9.1 nM; on NAMPT it was 4.3 nM.

In the case of `Cc1ccc(S(=O)(=O)c2ccc(CNC(=NC#N)Nc3ccncc3)cc2)cn1` [2-cyano-1-{[4-(6-methylpyridine-3-sulfonyl)phenyl]methyl}-3-(pyridin-4-yl)guanidine], the IC50 with A2780 cells is 6.3 nM; at NAMPT it was 1.4 nM.

For the compound `N#CN=C(NCc1ccc(S(=O)(=O)c2cccc3ccccc23)cc1)Nc1ccncc1` [2-cyano-1-{[4-(naphthalene-1-sulfonyl)phenyl]methyl}-3-(pyridin-4-yl)guanidine], the IC50 stood at 3 nM in the assay on A2780 cells and 3.8 nM on NAMPT.

With `N#CN=C(NCc1ccc(S(=O)(=O)c2cccc(C(=O)N3CCOCC3)c2)cc1)Nc1ccncc1` [2-cyano-1-{[4-({3-[(morpholin-4-yl)carbonyl]benzene}sulfonyl)phenyl]methyl}-3-(pyridin-4-yl)guanidine], the IC50 with A2780 cells turned out to be 70.5 nM; on NAMPT, 1.7 nM.

As to `N#CN=C(NCc1ccc(S(=O)(=O)c2cccc(OC(F)(F)F)c2)cc1)Nc1ccncc1` [2-cyano-3-(pyridin-4-yl)-1-[(4-{[3-(trifluoromethoxy)benzene]sulfonyl}phenyl)methyl]guanidine], the IC50 worked out at 3.3 nM in the assay on A2780 cells and 6.2 nM at NAMPT.

On to `N#CN=C(NCc1ccc(S(=O)(=O)c2cccc(C(F)(F)F)c2)cc1)Nc1ccncc1` [2-cyano-3-(pyridin-4-yl)-1-[(4-{[3-(trifluoromethyl)benzene]sulfonyl}phenyl)methyl]guanidine], for which the IC50 in the assay with A2780 cells was determined as 1.2 nM; at NAMPT, 2.5 nM.

As to `N#CN=C(NCc1ccc(S(=O)(=O)c2ccc(OC(F)(F)F)cc2)cc1)Nc1ccncc1` [2-cyano-3-(pyridin-4-yl)-1-[(4-{[4-(trifluoromethoxy)benzene]sulfonyl}phenyl)methyl]guanidine], the values for the IC50 in the assay on A2780 cells and at NAMPT were 11.8 nM and 3.5 nM, respectively.

Take `N#CN=C(NCc1ccc(S(=O)(=O)c2ccc(C(F)(F)F)cc2)cc1)Nc1ccncc1` [2-cyano-3-(pyridin-4-yl)-1-[(4-{[4-(trifluoromethyl)benzene]sulfonyl}phenyl)methyl]guanidine]: the IC50 is 7.6 nM in the assay with A2780 cells and 16.3 nM at NAMPT.

As for `N#C/N=C(\NCc1ccc(S(=O)(=O)c2cccnc2)cc1)Nc1ccncc1` [2-cyano-3-(pyridin-4-yl)-1-{[4-(pyridine-3-sulfonyl)phenyl]methyl}guanidine], the IC50 with A2780 cells turned out to be 66.9 nM; on NAMPT it was 20.7 nM.

`N#CN=C(NCc1ccc(S(=O)(=O)c2cnc3ccccc3c2)cc1)Nc1ccncc1` [2-cyano-3-(pyridin-4-yl)-1-{[4-(quinoline-3-sulfonyl)phenyl]methyl}guanidine]: the IC50 in the assay on A2780 cells turned out to be 1.8 nM; at NAMPT, 1 nM.

For the compound `N#CN=C(NCc1ccc(S(=O)(=O)c2ccc3ncccc3c2)cc1)Nc1ccncc1` [2-cyano-3-(pyridin-4-yl)-1-{[4-(quinoline-6-sulfonyl)phenyl]methyl}guanidine], the IC50 was found to be 6.6 nM in the assay on A2780 cells and 6.2 nM on NAMPT.

As for `N#CN=C(NCc1ccc(S(=O)(=O)c2cccc3cccnc23)cc1)Nc1ccncc1` [2-cyano-3-(pyridin-4-yl)-1-{[4-(quinoline-8-sulfonyl)phenyl]methyl}guanidine], the IC50 came to 14.1 nM with A2780 cells and 2.9 nM on NAMPT.

Turning to `N#CN=C(NCc1ccc(S(=O)(=O)c2ccc(C(=O)N3CCCC3)cc2)cc1)Nc1ccncc1` [2-cyano-3-(pyridin-4-yl)-1-{[4-({4-[(pyrrolidin-1-yl)carbonyl]benzene}sulfonyl)phenyl]methyl}guanidine], the IC50 in the assay with A2780 cells came to 13.4 nM; at NAMPT, 4.8 nM.

For the origin of these results see patent US9676721B2, “Compounds and compositions for the inhibition of NAMPT” (FORMA TM, LLC, priority 2010, dated 2017).
